Measurements published in the Bradley open melting point set (2014).
Several values for one entry are separate records, joined by “and”; a condition that tells them apart may be missing. Equal entries are not always repeated.

Compound | melting point
O=C(O)c1ccccc1Cl [2-chlorobenzoic acid] | 140 °C
Oc1ccc(Cl)cc1Cl [2,4-Dichlorophenol] | 42.5 °C
CN(CCCC(=O)c1cccnc1)N=O [4-[Methyl(nitroso)amino]-1-(pyridin-3-yl)butan-1-one] | 72 °C
Oc1cc(Cl)ccc1Cl [2,5-dichlorophenol] | 57 °C
CC(C)(C)O [2-methyl-2-propanol] | 26 °C
CCCCCCCCCCc1ccc(N(NC(=O)OC(C)(C)C)C(=O)OC(C)(C)C)cc1CCCCCCCCCC [1,2-Bis(tert-butoxycarbonyl)-1-(3,4-didecylphenyl)hydrazine] | 37.5 °C
CCCCCCCCCCCO [1-undecanol] | 16 °C and 14 °C
O=[N+]([O-])c1ccc(OCCN2CCOCC2)cc1 [4-[2-(4-nitrophenoxy)ethyl]morpholine] | 80 °C
OB(O)c1ccnc(F)c1Cl [3-chloro-2-fluoropyridine-4-boronic acid] | 128 °C
C#CC(C)(O)c1ccccc1 (stereo unspecified) [2-phenyl-3-butyn-2-ol] | 49 °C
COc1ccc(C=NO)c(OC)c1 [2,4-dimethoxybenzaldoxime] | 107 °C
CCCCCCCS [1-heptanethiol] | -43 °C
CCC1(c2ccccc2)C(=O)NC(=O)NC1=O [Phenobarbital] | 176 °C
CCOCCO [2-ethoxyethanol] | -90 °C
CC12CCC3C(C1CCC2=O)C1(CC2CC(=O)CCC23C)OCCO1 (stereo unspecified) | 207 °C
CC(Br)CBr (stereo unspecified) [1,2-dibromopropane] | -55 °C
ClCc1ccccc1Cl [2-chlorobenzyl chloride] | -13 °C
CC1=NC2=CCC=CC2=C1C#N [2-methyl-1H-indole-3-carbonitrile] | 213 °C
C=C1N(C(C)=O)c2ccccc2C1(C)C(=O)OC (stereo unspecified) | 60 °C
CC(C)(C)I [2-Iodo-2-methylpropane] | -38 °C
CC(Br)C(C)(C)C (stereo unspecified) [2-bromo-3,3-dimethylbutane] | 25 °C
CCOP(O)OCC [diethyl phosphite] | -70 °C
O=[PH](O)c1ccccc1 [phenylphosphinic acid] | 84 °C
CCOS(=O)(=O)c1ccc(C)cc1 [ethyl_p-toluenesulfonate] | 34 °C
CCN1CCNC(=O)C1=O [1-ethylpiperazine-2,3-dione] | 110 °C

Compound | melting point
OCc1ccc(F)c(B(O)O)c1 [2-fluoro-5-(hydroxymethyl)benzeneboronic acid] | 71 °C
CC(C)c1ccc(B(O)O)cc1 [4-isopropylbenzeneboronic acid] | 143 °C
C1OCOCO1 [1,3,5-trioxane] | 61 °C
CN1CCCC1=O [1-Methylpyrrolidin-2-one] | -23 °C
Cc1ccc(N)c(N)c1 [4-Methylbenzene-1,2-diamine] | 89.5 °C
O=C(O)c1cc(O)ccc1O [2,5-dihydroxybenzoic acid] | 200 °C and 205 °C
O=P(Oc1ccccc1)(Oc1ccccc1)Oc1ccccc1 [Triphenyl phosphate] | 50.5 °C
Brc1ccc(Br)cc1 [p-dibromobenzene] | 88 °C
NC(=O)c1cc(F)cc(F)c1 [3,5-difluorobenzamide] | 156 °C
[O-][I+3]([O-])([O-])O [Periodic acid] | 122 °C
COc1ccc(CCN)cc1OC [2-(3,4-dimethoxyphenyl)ethylamine] | 11 °C
O=C(O)c1cc(O)ccc1O [2,5-Dihydroxybenzoic acid] | 206 °C
O=C1C=CC(=O)C=C1 [p-benzoquinone] | 114 °C
CCCCC1(CC)C(=O)NC(=O)NC1=O [5-butyl-5-ethylbarbituric acid] | 128 °C
CC12CCC(C1(C)C)C(C/C=C\c1ccccc1)(C1(C/C=C/c3ccccc3)C(=O)C3(C)CCC1C3(C)C)C2=O (stereo unspecified) | 152 °C
CC#N [methyl_cyanide] | -46 °C
O=C1C=C(NCCc2ccccn2)C(=O)c2ccccc21 [2-[(2-pyridin-2-ylethyl)amino]naphthalene-1,4-dione] | 129 °C
CC(=O)OC1CCC2C3CCC4=CC(=O)CCC4(C)C3CCC12C (stereo unspecified) [3-oxoandrost-4-en-17-yl acetate] | 140 °C
Cc1ccc(NC(=O)Nc2ccc(C)cc2)cc1 [1,3-bis(4-tolyl)urea] | 266 °C
Cn1ccc(=O)n(C)c1=O [1,3-dimethyluracil] | 121 °C
Brc1cscc1Br [3,4-dibromothiophene] | 5 °C
O=C(Oc1ccccc1)c1ccccc1C(=O)Oc1ccccc1 [diphenyl phthalate] | 75 °C
COc1ccccc1B(O)O [2-methoxybenzeneboronic acid] | 104 °C
O=[N+]([O-])c1cccc(O)c1 [3-nitrophenol] | 96 °C

Further lines, results first:

melting point | Compound
243 °C | Cc1cc(NS(=O)(=O)c2ccc(N)cc2)nc(C)n1 [Sulfisomidine]
19 °C | COC(=O)CCC(=O)OC [dimethyl succinate]
66 °C | COc1cc(CNC(=O)CCCC/C=C/C(C)C)ccc1O [(6E)-N-(4-Hydroxy-3-methoxybenzyl)-8-methylnon-6-enamide]
159 °C and 160 °C | COc1ccc2c(c1)c(CC(=O)O)c(C)n2C(=O)c1ccc(Cl)cc1 [indomethacin] [listing 1 of 2 here]
27.5 °C | NCCCCN [Butane-1,4-diamine]
204 °C | C#C[C@]1(O)CC[C@H]2[C@@H]3CCC4=CC(=O)CC[C@@H]4[C@H]3CC[C@@]21C [norethindrone]
-80 °C | CCCCSCCCC [di-n-butyl sulfide]
160 °C | COc1ccc2c(c1)c(CC(=O)O)c(C)n2C(=O)c1ccc(Cl)cc1 [indomethacin] [listing 2 of 2 here]
208 °C | c1cc(ccc1NC(=O)/C=CC(=O)O)F [N-(4-fluorophenyl)maleamic acid]
262 °C | NCC(=O)O [glycine]
-80 °C | COC(=O)CC(C)=O [methyl_acetoacetate]
89 °C | CCOC(=O)c1ccc(N)cc1 [ethyl 4-aminobenzoate]
109 °C | c1ccc2c(c1)Cc1ccccc1C2 [9,10-Dihydroanthracene]
199 °C | CC(=NNC(=O)c1ccncc1)c1ccco1 [a-Methylfurfurylidenehydrazide of Isonicotinic Acid]
-88 °C | CCC(=O)OC [methyl propionate]
44.5 °C | CCCCCCCCCCCCC(=O)O [N-Tridecanoic Acid]
83 °C | C[C@@H](NC(=O)OC(C)(C)C)C(=O)O [N-boc-D-alanine]
136 °C | CNC(=O)N(C)c1nnc(C(F)(F)F)s1 [Thiazafluron]
188 °C and 187 °C | O=C(O)CCC(=O)O [succinic acid]
62 °C | COc1ccc(C(=O)c2ccccc2)cc1 [4-methoxybenzophenone]
0 °C | C1=CCCCCCCCCCC1 [cyclododecene_(trans)]
114 °C | CN(C)C(=S)Sc1ccc2ccccc2c1 [naphthalen-2-yl dimethyldithiocarbamate]
102 °C | OC[C@@H](O)[C@@H](O)[C@@H](O)CO [D-Ribitol]
81 °C | Cc1nc(N)ccc1Br [6-amino-3-bromo-2-methylpyridine]
149 °C | O=C(O)c1ccccc1Br [o-bromobenzoic_acid]
80 °C | c1ccc2c(c1)OCCOCCOCCOCCO2 [benzo-15-crown-5]

melting point | Compound
130 °C | Oc1ccccc1C=NCCN=Cc1ccccc1O [N,N'-bis(salicylidene)ethylenediamine]
-3 °C | CCCCCC(=O)O [hexanoic_acid]
277 °C | N[C@@H](Cc1ccc(O)c(O)c1)C(=O)O [l-dopa]
121 °C | CC(=O)[C@H]1CC[C@H]2[C@@H]3CCC4=CC(=O)CC[C@]4(C)[C@H]3CC[C@]12C [Progesterone]
42.2 °C | O=C(Oc1ccccc1)c1ccccc1O [phenyl salicylate]
106 °C | SC(c1ccccc1)(c1ccccc1)c1ccccc1 [triphenylmethyl mercaptan]
170 °C | COc1ccc(B(O)O)c(C(F)(F)F)c1 [4-methoxy-2-(trifluoromethyl)benzeneboronic acid]
135 °C | O=C(Nc1ccccc1)OC1C=CC=CCC1OC(=O)Nc1ccccc1 (stereo unspecified) [cyclohepta-3,5-diene-1,2-diyl bis(phenylcarbamate)]
101 °C | O=Cc1cc(Cl)ccc1O [5-chlorosalicylaldehyde]
102 °C | CC1(C)O[C@@H]2CO[C@]3(COC(C)(C)O3)C(=O)[C@@H]2O1 [D-epoxone]
135 °C | CC(=O)OC1CCC2(C)C(CCC3C2CCC2(C)C3CCC2(C)CCc2ccccc2)C1 (stereo unspecified) [17-methyl-21-phenylpregnan-3-yl acetate]
-22 °C | C=C(C#N)C(=O)OCC [Ethyl 2-cyanoacrylate]
-18 °C | NC1CCCCC1 [cyclohexylamine]
-60.4 °C | CN(C)C=O [Dimethylformamide]
255 °C | Nc1ccc(S(=O)(=O)Nc2ncccn2)cc1 [sulfadiazine]
103 °C | CCOC(=O)/C(C#N)=N\Nc1ccccc1[N+](=O)[O-] [Ethyl (2Z)-cyano[(2-nitrophenyl)hydrazono]acetate]
10 °C | CCCCCCCC/C=C/CCCCCCCC(=O)OC [methyl elaidate]
183 °C | Nc1cccc(-n2ccccc2=O)c1 [amphenidone]
-1 °C | N#CCc1ccccc1Br [o-bromophenylacetonitrile]
215 °C | COc1ccc(B(O)O)cc1C [4-methoxy-3-methylbenzeneboronic acid]
41 °C | Oc1ccccc1 [phenol]
164 °C | Cc1c(C)c(C)c(C)c(C)c1C [hexamethylbenzene]
-53 °C | C1=C\CCCC\C=C/1 [(1Z,3Z)-Cycloocta-1,3-diene]
60 °C | COc1ccc(OC)cc1 [p-dimethoxybenzene]
80 °C | COC(=O)c1cccc([N+](=O)[O-])c1 [methyl_3-nitrobenzoate]
-119 °C | CCC/C=C\CCC [cis-4-octene]
